The procedure of this series: To test for sensor stability and performance, a cartridge use life test was completed after one month of cartridge shelf-life and then repeated after eight months of cartridge shelf-life.
Additionally, reagent performance on the GEM® Premier™ 5000 system was evaluated based on drift of parameters for assays performed on the GEM® Premier™ 5000 system. Drift for each assay parameter constitutes a deviation of measured results for each assay parameter from its factory assigned target. For example, ρO2 was measured several times during cartridge use at a defined frequency on the GEM® Premier™ 5000, and the drift was calculated for each measurement as the difference between measured […] for a composition and the ρO2 assigned to the composition at manufacture.
In this experiment, the control containers were confirmed to contain limited or no metal contamination (e.g., in parts-per-billion, cobalt 0.10, chromium 2.24, copper 0.64, iron 3.23, and manganese 0.63). The limits columns represents the maximum change that can occur during composition shelf-life according to the GEM® Premier™ 5000 design specifications.

Take `C[C@H]1COc2c(N3CCN(C)CC3)c(F)cc3c(=O)c(C(=O)O)cn1c23` [levofloxacin]: the “effect on sensor performance and the performance and stability of the compositions” value is recorded as “does not negatively affect sensor performance”.
